Laboratory results reported in US9527859B2, “Amidopyridine derivative and use thereof” (Mitsubishi Tanabe Pharma Corporation, priority 2012, dated 2016).

Experiments:
[1] = system: production of IL-17 in mouse splenocytes stimulated by recombinant mouse interleukin-23; assay: Production of IL-17 induced when mouse splenocytes were stimulated by rm-IL-23 (ELISA); type: cell-based; details: Splenocyte, inhibition of IL-17 production, rm-IL-23 1 nmol/L, 72 hours
Experimental: Effect on Production of IL-17 Induced when Mouse Splenocytes were Stimulated by Recombinant Mouse Interleukin-23 (rm-IL-23)
RPMI1640 media (Sigma-Aldrich) were used as a medium, to which 50 units/mL penicillin G potassium/50 μg/mL streptomycin (Gibco) and […] 2-mercaptoethanol (Sigma-Aldrich) were added, and then thereto was added 10% of fetal calf serum (FCS; Cell Culture Technology) which was treated at 56° C. for 30 minutes to be inactivated, and the mixture was used in the Test. The test compound was dissolved in dimethylsulfoxide and then diluted with 10% FCS-containing RPMI1640 medium to a desired concentration to be used. The spleens were aseptically taken out from 6 to 7 week-old male DBA/1J mice (Charles River Japan, Inc.) and a single cell suspension of splenocytes was prepared, which was hemolyzed by hypotonic treatment with a mixed solution of 0.83% aqueous solution of ammonium chloride and Tris-HCl buffer of pH 7.65 (9:1). A cell suspension prepared by using 10% FCS-containing RPMI1640 medium was added to a flat-bottomed 96 well microtestplate (Coaster) at 2×10^5 cells/well. Thereto were added test compounds and rm-IL-23 (R&D systems) were diluted with a medium to 1 to 1,000 nmol/L and 1 nmol/L of the final concentration, respectively, and the mixture was cultured at 37° C., 5% carbon dioxide and 95% air for 72 hours. After completion of the culture, culture supernatant was sampled and production amounts of IL-17 therein were determined by ELISA method. After sampling the supernatant, WST-8 (Seikagaku Corporation) was added at 10 μl/well and cultured at 37° C., 5% carbon dioxide and 95% air for 4 hours. Then, absorbance (O.D.: Optical Density) at 450 nm was measured by a microplate reader and the value was adopted as an index of cell survivability. An inhibition rate was calculated according to the following formula on the basis of an average of production amounts of IL-17 and O.D. values of the well containing a test compound of each concentration. Inhibition (%)=(1−(Average value of well with addition of test compound)/(Average value of well without addition of test compound))×100
Based on the dose-response curve obtained by plotting the inhibition rate in the longitudinal axis and the concentration in the horizontal axis, the concentration of the compound which inhibits the level to 50% of the value of the control group (IC50) (nmol/L) was determined by linear regression analysis.

[2] = system: HepG2 cells; assay: Evaluation of hepatocyte cytotoxicity using HepG2 cells (CellTiter-Glo); type: cell-based, human; details: for Survival rate (%): cell survival rate
Experimental: Evaluation of Hepatocyte Cytotoxicity Using HepG2 Cells
A culture solution was prepared by adding 10% Fetal Bovine Serum (FBS: treated to be inactivated under the condition of 56° C., 30 minutes, Invitrogen, 10082-147), 0.1 mM Non-Essential Amino Acids (NEAA: Invitrogen, 11140-050), 1 mM sodium pyruvate (PyNa: Invitrogen, 11360-070) to Eagle's MEM medium (Invitrogen, 11875-093) and was used after warming to 37° C. before using.
HepG2 cell line (DS Pharma Biomedical) derived from human hepatoma in logarithmic growth phase were used. The number of cells subjected to subculturing was 1 to 5×10^6 cell/15 mL in a 75 cm^2 cultivation flask, and cells were subcultured about every 1 week depending on the condition of cells. In subculturing, cells were rinsed with D-PBS (−) (invitrogen, 14190-144) (10 mL), then thereto was added 0.25% Trypsin-1 mM EDTA (Invitrogen, 25200-056) (1 mL), and the mixture was treated for 10 minutes (37° C., 5% CO2), then thereto was added culture solution (9 mL), and the mixture was collected and centrifuged (1000 rpm×5 minutes, 4° C.). The number of cells were counted by dyeing with 0.4% trypan blue solution (Invitrogen, 15250-061), and then cells were diluted with culture solution to be a specific number of cells and incubated under the condition of 37° C., 5% CO2.
As to a cell seeding, HepG2 cells which were incubated in a 75 cm^2 flask were rinsed with D-PBS (−) (10 mL), and then thereto was added 0.25% Trypsin-1 mM EDTA (1 mL), and the mixture was treated for 10 minutes (37° C., 5% CO2). Thereto was added additional culture solution (9 mL), and the mixture was collected in a 50 mL centrifuge tube to be centrifuged (1000 rpm×5 minutes, 4° C.). A supernatant was removed, and the residual cells were suspended by additional culture solution and sufficiently single-celled by pipetting. After dyeing with 0.4% trypan blue, the number of cells were counted by using a cell counting chamber, and a suspended cell was prepared in a specified cell density (In case of 24-hour exposure: 1×10^5, in case of 48-hour exposure: 5×10^4 cells/mL). The 100 μL of cell suspension was added per 1 well (n=3, 24 hours: 1×10^4, 48 hours: 5×10^3 cells/100 μL/well) of 96 well Clear bottom black microplate (Corning, 3603), and then the mixture was pre-incubated for about 24 hours under the condition of 37° C., 5% CO2.
Stock solutions of test compounds were prepared in a 200-fold concentration of the desired maximum concentration to be homogenized with optional ultrasonication. These stock solutions were preserved at −20° C. Before using, a stock solution was thawed, and diluted with DMSO to be concentrations of 20 mM to 20 μM (common ratio of 3, 7 concentrations in total), and then it was diluted with culture solution in 100-fold to prepare a culture solution containing test compounds in a 2-fold concentration. Thus, the upper limit of the final concentration of DMSO in culture solution was in principle 0.5% (v/v).
A vehicle control group and a positive control group were set with each measurement plate. Chlorpromazine (Wako Pure Chemical Industries, Ltd., 033-10581) was used as a positive control agent (final concentration 24 hours: 20 μM, 48 hours: 15 μM). 20 mM stock solution was thawed, and then diluted with culture solution, and chlorpromazine-containing culture solution was prepared in 2-fold concentration.
As to the treatment of test compounds, a culture solution (100 μL) containing a test compound or a positive control agent and a culture solution (100 μL) containing vehicle were added to each specified well. A culture solution (200 μL) was added to blank (without cells) well. Thus, total amounts of culture solution of each well were 200 μL, and the final concentration of test compounds was 100 μM to 0.1 μM (common ratio of 3, 7 concentrations in total).
Incubation was carried out under the condition of 37° C., 5% CO2 for 24 or 48 hours. […]

| Compound | IC50 [1] [nM] | Cell survival rate [2] [%] | Survival rate (%) [2] [%] |
| --- | --- | --- | --- |
| Cc1c(C(=O)Nc2cnc(N3CCC(O)CC3)c(C3CC3)c2)cnn1-c1ccc(Cl)cc1 [Example 39, 1-(4-chlorophenyl)-N-[5-cyclopropyl-6-(4-hydroxypiperidin-1-yl)pyridin-3-yl]-5-methyl-1H-pyrazole-4-carboxamide] | 136 | 65.8 | 107.1 |
| Cc1cc(NC(=O)c2cnn(-c3ccc(Cl)cc3)c2C)cnc1N1CCC(O)CC1 [Example 43, 1-(4-chlorophenyl)-N-[6-(4-hydroxypiperidin-1-yl)-5-methylpyridin-3-yl]-5-methyl-1H-pyrazole-4-carboxamide] | 102 |  | 117.8 |
| Cc1c(C(=O)Nc2cnc(N3CCC(O)CC3)c(C#N)c2)cnn1-c1ccc(Cl)cc1 [Example 44, 1-(4-chlorophenyl)-N-[5-cyano-6-(4-hydroxypiperidin-1-yl)pyridin-3-yl]-5-methyl-1H-pyrazole-4-carboxamide] | 74.9 |  | 95.8 |
| Cc1c(C(=O)Nc2cnc(N3CCC(O)CC3)c(C#N)c2)cnn1-c1ccc(C(F)(F)F)cc1 [Example 45, N-[5-cyano-6-(4-hydroxypiperidin-1-yl)pyridin-3-yl]-5-methyl-1-[4-(trifluoromethyl)phenyl]-1H-pyrazole-4-carboxamide] | 72.5 |  | 92.5 |
| Cc1cc(NC(=O)c2cnn(-c3ccc(C(F)(F)F)cc3)c2C)cnc1N1CCC(C(C)(C)F)CC1 [Example 47, N-{6-[4-(1-fluoro-1-methylethyl)piperidin-1-yl]-5-methylpyridin-3-yl}-5-methyl-1-[4-(trifluoromethyl)phenyl]-1H-pyrazole-4-carboxamide] | 57.9 |  | 99.8 |
| Cc1cc(NC(=O)c2cnn(-c3ccc(C(F)(F)F)cn3)c2C)cnc1N1CCC(C(C)(C)F)CC1 [Example 49, N-{6-[4-(1-fluoro-1-methylethyl)piperidin-1-yl]-5-methylpyridin-3-yl}-5-methyl-1-[5-(trifluoromethyl)pyridin-2-yl]-1H-pyrazole-4-carboxamide] | 54.7 |  | 102.3 |
